From patent US10287301B2 (Achillion Pharmaceuticals, Inc., priority 2015, dated 2019)
Like-named read-outs stand apart in the source and are kept apart here.

Molecular target: Human Factor D (Homo sapiens (Human), UniProt P00746)
Test: Human Factor D Assay
Assay type: biochemical
Summary of the method: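 Thioester cleavage assay: human Factor D (serum-derived, 80 nM final), substrate Z-L-Lys-SBzl with DTNB, both 100 μM final, after 5 min compound preincubation at room temperature.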

[1] = Table 3, Human Factor D 80 nM, substrate Z-L-Lys-SBzl, read-out: IC50 (Stars)

Human Factor D, sequence (P00746 26-253): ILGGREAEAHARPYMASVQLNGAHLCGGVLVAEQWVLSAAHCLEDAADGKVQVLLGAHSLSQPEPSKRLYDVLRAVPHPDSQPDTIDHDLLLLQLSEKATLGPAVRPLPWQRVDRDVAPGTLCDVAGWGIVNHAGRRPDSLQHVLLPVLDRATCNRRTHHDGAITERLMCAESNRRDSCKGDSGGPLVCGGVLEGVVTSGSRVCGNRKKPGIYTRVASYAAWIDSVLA

SMILES: COC[C@@]12C[C@@H](C(=O)Nc3cccc(Br)n3)N(C(=O)Cn3nc(C(C)=O)c4cc(-c5cnc(C)nc5)ccc43)[C@@H]1C2 [Compound 416, (1R,3S,5S)-2-(2-(3-Acetyl-5-(2-methylpyrimidin-5-yl)-1H-indazol-1-yl)acetyl)-N-(6-bromopyridin-2-yl)-5-(methoxymethyl)-2-azabicyclo[3.1.0]hexane-3-carboxamide]
- IC50 [1]: < 1000 nM

SMILES: COC[C@@]12C[C@@H]1N(C(=O)Cn1nc(C(C)=O)c3cc(-c4cnc(C)nc4)ccc31)[C@H](C(=O)Nc1cccc(Br)n1)C2 [Compound 417, (1S,3S,5R)-2-(2-(3-Acetyl-5-(2-methylpyrimidin-5-yl)-1H-indazol-1-yl)acetyl)-N-(6-bromopyridin-2-yl)-5-(methoxymethyl)-2-azabicyclo[3.1.0]hexane-3-carboxamide]
- IC50 [1]: < 1000 nM

SMILES: CC(=O)c1nn(CC(=O)N2C[C@](C)(F)C[C@H]2C(=O)Nc2cccc(Br)n2)c2ccc(-c3cnc(C)nc3)cc12 [Compound 418, (2S,4R)-1-(2-(3-Acetyl-5-(2-methylpyrimidin-5-yl)-1H-indazol-1-yl)acetyl)-N-(6-bromopyridin-2-yl)-4-fluoro-4-methylpyrrolidine-2-carboxamide]
- IC50 [1]: < 1000 nM

SMILES: COC[C@@]1(F)C[C@@H](C(=O)Nc2cccc(Br)n2)N(C(=O)Cn2nc(C(C)=O)c3cc(-c4cnc(C)nc4)ccc32)C1 [Compound 419, (2S,4R)-1-(2-(3-Acetyl-5-(2-methylpyrimidin-5-yl)-1H-indazol-1-yl)acetyl)-N-(6-bromopyridin-2-yl)-4-fluoro-4-(methoxymethyl)pyrrolidine-2-carboxamide]
- IC50 [1]: < 1000 nM

SMILES: CC(=O)c1nn(CC(=O)N2C[C@H](F)C[C@H]2C(=O)Nc2nn(CC(F)(F)F)cc2Br)c2ccc(-c3cnc(C)nc3)cc12 [Compound 420, (2S,4R)-1-(2-(3-Acetyl-5-(2-methylpyrimidin-5-yl)-1H-indazol-1-yl)acetyl)-N-(4-bromo-1-(2,2,2-trifluoroethyl)-1H-pyrazol-3-yl)-4-fluoropyrrolidine-2-carboxamide]
- IC50 [1]: < 1000 nM

SMILES: CNC(=O)c1nn(CC(=O)N2C[C@H](F)C[C@H]2C(=O)Nc2cccc(Br)n2)c2ccc(-c3cnc(C)nc3)cc12 [Compound 424, 1-(2-((2S,4R)-2-((6-Bromopyridin-2-yl)carbamoyl)-4-fluoropyrrolidin-1-yl)-2-oxoethyl)-N-methyl-5-(2-methylpyrimidin-5-yl)-1H-indazole-3-carboxamide]
- IC50 [1]: < 1000 nM

SMILES: Cc1ncc(-c2ccc3c(c2)c([C@H](C)O)nn3CC(=O)N2C[C@H](F)C[C@H]2C(=O)Nc2cccc(Br)n2)cn1 [Compound 425, (2S,4R)—N-(6-Bromopyridin-2-yl)-4-fluoro-1-(2-(3-((S)-1-hydroxyethyl)-5-(2-methylpyrimidin-5-yl)-1H-indazol-1-yl)acetyl)pyrrolidine-2-carboxamide]
- IC50: 1000 to 10000 nM

SMILES: Cc1ncc(-c2ccc3c(c2)c([C@@H](C)O)nn3CC(=O)N2C[C@H](F)C[C@H]2C(=O)Nc2cccc(Br)n2)cn1 [Compound 426, (2S,4R)—N-(6-Bromopyridin-2-yl)-4-fluoro-1-(2-(3-((R)-1-hydroxyethyl)-5-(2-methylpyrimidin-5-yl)-1H-indazol-1-yl)acetyl)pyrrolidine-2-carboxamide]
- IC50: 1000 to 10000 nM

SMILES: CC(=O)c1nn(CC(=O)N2C[C@H](F)[C@@H](N)[C@H]2C(=O)Nc2cccc(Br)n2)c2ccc(-c3cnc(C)nc3)cc12 [Compound 427, (2S,3S,4S)-1-(2-(3-Acetyl-5-(2-methylpyrimidin-5-yl)-1H-indazol-1-yl)acetyl)-3-amino-N-(6-bromopyridin-2-yl)-4-fluoropyrrolidine-2-carboxamide]
- IC50 [1]: < 1000 nM

SMILES: CC(=O)c1nn(CC(=O)N2C[C@@H](N)[C@H](F)[C@H]2C(=O)Nc2cccc(Br)n2)c2ccc(-c3cnc(C)nc3)cc12 [Compound 428, (2R,3S,4R)-1-(2-(3-Acetyl-5-(2-methylpyrimidin-5-yl)-1H-indazol-1-yl)acetyl)-4-amino-N-(6-bromopyridin-2-yl)-3-fluoropyrrolidine-2-carboxamide]
- IC50 [1]: > 10000 nM

SMILES: CC(=O)c1nn(CC(=O)N2C[C@H](F)C[C@H]2C(=O)Nc2cc(C)n(CC(F)(F)F)n2)c2ccc(-c3cnc(C)nc3)cc12 [Compound 429, (2S,4R)-1-(2-(3-Acetyl-5-(2-methylpyrimidin-5-yl)-1H-indazol-1-yl)acetyl)-N-(5-methyl-1-(2,2,2-trifluoroethyl)-1H-pyrazol-3-yl)-4-fluoropyrrolidine-2-carboxamide]
- IC50 [1]: < 1000 nM

SMILES: CC(=O)c1nn(CC(=O)N2C[C@H](F)C[C@H]2C(=O)Nc2nn(CC(F)(F)F)cc2Cl)c2ccc(-c3cnc(C)nc3)cc12 [Compound 430, (2S,4R)-1-(2-(3-Acetyl-5-(2-methylpyrimidin-5-yl)-1H-indazol-1-yl)acetyl)-N-(4-chloro-1-(2,2,2-trifluoroethyl)-1H-pyrazol-3-yl)-4-fluoropyrrolidine-2-carboxamide]
- IC50 [1]: < 1000 nM

SMILES: COc1cc(Br)nc(NC(=O)[C@@H]2C[C@@H](F)CN2C(=O)Cn2nc(C(C)=O)c3cc(-c4cnc(OC)nc4)ccc32)c1 [Compound 431, (2S,4R)-1-(2-(3-Acetyl-5-(2-methoxypyrimidin-5-yl)-1H-indazol-1-yl)acetyl)-N-(6-bromo-4-methoxypyridin-2-yl)-4-fluoropyrrolidine-2-carboxamide]
- IC50 [1]: < 1000 nM

SMILES: COc1cc(Br)nc(NC(=O)[C@@H]2C[C@@H](F)CN2C(=O)Cn2nc(C(C)=O)c3cc(-c4cnc(N)nc4)ccc32)c1 [Compound 432, (2S,4R)-1-(2-(3-Acetyl-5-(2-aminopyrimidin-5-yl)-1H-indazol-1-yl)acetyl)-N-(6-bromo-4-methoxypyridin-2-yl)-4-fluoropyrrolidine-2-carboxamide]
- IC50 [1]: < 1000 nM

SMILES: COc1cc(Br)nc(NC(=O)[C@@H]2C[C@H]3C[C@H]3N2C(=O)Cn2nc(C(C)=O)c3cc(-c4cnc(OC)nc4)ccc32)c1 [Compound 433, (1R,3S,5R)-2-(2-(3-Acetyl-5-(2-methoxypyrimidin-5-yl)-1H-indazol-1-yl)acetyl)-N-(6-bromo-4-methoxypyridin-2-yl)-2-azabicyclo[3.1.0]hexane-3-carboxamide]
- IC50 [1]: < 1000 nM

SMILES: COc1cc(Br)nc(NC(=O)[C@@H]2C[C@H]3C[C@H]3N2C(=O)Cn2nc(C(C)=O)c3cc(-c4cnc(N)nc4)ccc32)c1 [Compound 434, (1R,3S,5R)-2-(2-(3-Acetyl-5-(2-aminopyrimidin-5-yl)-1H-indazol-1-yl)acetyl)-N-(6-bromo-4-methoxypyridin-2-yl)-2-azabicyclo[3.1.0]hexane-3-carboxamide]
- IC50 [1]: < 1000 nM

SMILES: CC(=O)c1nn(CC(=O)N2C[C@H](F)C[C@H]2C(=O)Nc2nc(Br)ccc2C)c2ccc(-c3cnc(N)nc3)cc12 [Compound 435, (2S,4R)-1-(2-(3-Acetyl-5-(2-aminopyrimidin-5-yl)-1H-indazol-1-yl)acetyl)-N-(6-bromo-3-methylpyridin-2-yl)-4-fluoropyrrolidine-2-carboxamide]
- IC50 [1]: < 1000 nM

SMILES: COc1ncc(-c2ccc3c(c2)c(C(C)=O)nn3CC(=O)N2C[C@H](F)C[C@H]2C(=O)Nc2nc(Br)ccc2C)cn1 [Compound 436, (2S,4R)-1-(2-(3-Acetyl-5-(2-methoxypyrimidin-5-yl)-1H-indazol-1-yl)acetyl)-N-(6-bromo-3-methylpyridin-2-yl)-4-fluoropyrrolidine-2-carboxamide]
- IC50 [1]: < 1000 nM

SMILES: CC(=O)c1nn(CC(=O)N2C[C@H](F)C[C@H]2C(=O)Nc2cc(F)ncc2Br)c2ccc(-c3cnc(C)nc3)cc12 [Compound 438, (2S,4R)-1-(2-(3-Acetyl-5-(2-methylpyrimidin-5-yl)-1H-indazol-1-yl)acetyl)-N-(5-bromo-2-fluoropyridin-4-yl)-4-fluoropyrrolidine-2-carboxamide]
- IC50 [1]: < 1000 nM

SMILES: CC(=O)c1nn(CC(=O)N2C[C@H](F)C[C@H]2C(=O)Nc2nn(C)c3ncccc23)c2ccc(-c3cnc(C)nc3)cc12 [Compound 439, (2S,4R)-1-(2-(3-Acetyl-5-(2-methylpyrimidin-5-yl)-1H-indazol-1-yl)acetyl)-4-fluoro-N-(1-methyl-1H-pyrazolo[3,4-b]pyridin-3-yl)pyrrolidine-2-carboxamide]
- IC50 [1]: < 1000 nM

SMILES: Cc1ncc(-c2ccc3c(c2)c(C(=O)CO)nn3CC(=O)N2C[C@H](F)C[C@H]2C(=O)Nc2cccc(Br)n2)cn1 [Compound 440, (2S,4R)—N-(6-bromopyridin-2-yl)-4-fluoro-1-(2-(3-(2-hydroxyacetyl)-5-(2-methylpyrimidin-5-yl)-1H-indazol-1-yl)acetyl)pyrrolidine-2-carboxamide]
- IC50 [1]: < 1000 nM

SMILES: CC(=O)c1cn(CC(=O)N2C[C@H](F)C[C@H]2C(=O)NCc2ccccc2)c2ccc(-c3cnc(C)nc3)cc12 [Compound 442, (2S,4R)-1-(2-(3-Acetyl-5-(2-methylpyrimidin-5-yl)-1H-indol-1-yl)acetyl)-N-benzyl-4-fluoropyrrolidine-2-carboxamide]
- IC50 [1]: < 1000 nM

SMILES: CC(=O)c1cn(CC(=O)N2C[C@H](F)C[C@H]2C(=O)NCCc2ccccc2)c2ccc(-c3cnc(C)nc3)cc12 [Compound 443, (2S,4R)-1-(2-(3-Acetyl-5-(2-methylpyrimidin-5-yl)-1H-indol-1-yl)acetyl)-4-fluoro-N-phenethylpyrrolidine-2-carboxamide]
- IC50 [1]: < 1000 nM

SMILES: CC(=O)c1cn(CC(=O)N2C[C@H](F)C[C@H]2C(=O)NCCCc2ccccc2)c2ccc(-c3cnc(C)nc3)cc12 [Compound 444, (2S,4R)-1-(2-(3-Acetyl-5-(2-methylpyrimidin-5-yl)-1H-indol-1-yl)acetyl)-4-fluoro-N-(3-phenylpropyl)pyrrolidine-2-carboxamide]
- IC50 [1]: < 1000 nM

SMILES: COc1ncc(-c2ccc3c(c2)c(C(C)=O)nn3CC(=O)N2[C@@H]3C[C@@H]3C[C@H]2C(=O)Nc2nc(Br)ccc2C)cn1 [Compound 445, (1R,3S,5R)-2-(2-(3-Acetyl-5-(2-methoxypyrimidin-5-yl)-1H-indazol-1-yl)acetyl)-N-(6-bromo-3-methylpyridin-2-yl)-2-azabicyclo[3.1.0]hexane-3-carboxamide]
- IC50 [1]: < 1000 nM
